# Entries after “also recorded” stand apart in the source; their conditions may differ.
# Experiments:
# [1] = test system: CD19-specific CAR-T cells co-expressing RTS-mbIL-15; assay: Survival of CD19 CAR/RTS-mbIL-15 T cells upon withdrawal of IL-2 and IL-21; format: cell-based, human; conditions: veledimex 50 nM, ex vivo culture, % live cells by flow
# Description: Multiple Sleeping Beauty transposon DNA plasmids encoding for RTS-membrane bound IL-15 (RTS-mbIL-15), CD19-specific chimeric antigen receptor (CD19 CAR) (Design 9, FIG. 2) were transfected into peripheral blood mononuclear cells (PBMC) along with plasmid DNA encoding for Sleeping Beauty transposase SB11 via nucleofection (FIG. 1). On day 0, 20 million PBMC were resuspended in 100 μL of Amaxa Human T cell Nucleofector solution (Cat. no. VPA-1002; Lonza, Basel, Switzerland) mixed with a total of 15 μg of transposons and 5 μg of transposase and nucleofected into cells. The following day (day1) cells were counted, and CAR expression was measured using flow cytometry. Cells were stimulated with either γ-irradiated (100 Gy) or mitomycin C treated K562 based AaPCs expressing CD19 on their surface at a 1:1 ratio. Cultures were supplemented with IL-21 (30 ng/ml) only for the first round of stimulation and subsequently with recombinant human IL-2 (50 IU/ml) and IL-21 (30 ng/ml) (Pepro Tech) for remaining stimulations. […] Cultures were also closely monitored for the outgrowth of NK cells (defined as CD3negCD56+ population) and were removed from the CAR T cell cultures when the percentage exceeded 10% of total cell populations using magnetic beads for CD56 (Stem Cell Technologies and/or Miltenyi Biotec), according to the manufacturer's instructions. […]
# [2] = test system: gene switch components VP16/RxR and Gal4/EcR controlling mbIL-15 in CD19 CAR-T cells; assay: T cell activation and ligand specific control of mbIL-15 (NFAT6-IL2 promoter driven gene switch), flow cytometry; format: cell-based, human
# Description: Sleeping Beauty transposons were designed to stably express CD19-specific CAR, a cell tag as well as gene switch-controlled mbIL-15. Expression of one or both of gene switch components (e.g. VP16/RxR and Gal4/EcR) were performed under the control of a T cell activation specific promoter. In this example, a T cell activation dependent promoter generated by 6×NFAT response element fused to minimal IL-2 promoter (NFAT6-IL2 promoter) was utilized to drive expression of gene switch components—VP16-RxR and/or Gal4-EcR fusion proteins for conditional expression of mbIL-15. When components of the gene switch are under the control of NFAT6-IL2 promoter, expression of mbIL-15 requires two conditions to be met: 1) T cells are activated; and 2) activator ligand, veledimex, to be present. SB transposons construct combinations shown in FIG. 20A were transfected along with SB11 transposase in donor T cells. […]
# The following day (day 1) cells were counted, and CAR expression was measured by flow cytometry. […]
# For flow cytometry analysis to assess expression of various markers and gene(s) of interest cells were gently resuspended and cell number and viability were measured using Trypan blue exclusion method with the Countess instrument. Cell diameter size was also recorded. […] The prepared antibody cocktails and associated fluorescence minus one/isotype control were added to stain the cell samples, and then the samples were incubated on ice for 30 min. […] All samples were run on a LSR II flow cytometer, a Fortessa X-20 flow cytometer (BD Biosciences) or iQue Screener Plus (Intellicyt) and data was analyzed using FlowJo V10 (TreeStar, Ashland, Oreg.) or iQue Screener software. […]
# Non-activated or activated CAR-T cells were harvested and either 100 nM veledimex or DMSO (to keep DMSO concentration constant in both cultures) was added to the cultures. […] CAR and mbIL-15 expression was quantified in either resting (FIG. 20B) or activated T cells in presence of absence of veledimex (FIG. 20C: ConA 1 μg/mL; ConA 5 μg/mL: FIG. 20D, PMA/Ionomycin: FIG. 20E).
structure (smiles),measurement,setting,value
"CCC[C@@H](N(NC(=O)c1cccc(OC)c1CC)C(=O)c1cc(C)cc(C)c1)C(C)(C)C [veledimex, N-[(1R)-1-(1,1-dimethylethyl)butyl]-N′-(2-ethyl-3-methoxybenzoyl)-3,5-dimethylbenzohydrazide]",survival of CAR-T cells in absence of cytokines (IL-2 and IL-21),[1],improved survival of CAR-T cells
same,mbIL-15 expression in activated CAR-T cells with gene switch components under NFAT6-IL-2 promoter,"[2]; constructs #3, 4 and 6, ConA 1 or 5 μg/mL or PMA/Ionomycin, 100 nM veledimex",exhibited expression of mbIL-15; also recorded: dependent on T cell activation (with addition of ConA) and presence of veledimex
same,mbIL-15 expression in absence of T cell activation,"[2]; resting CAR-T cells, 100 nM veledimex, at least 24 hours",only CAR-T cells that harbor transposons for expression of gene switch components (e.g. VP16/RxR and Gal4/EcR) under a constitutive promoter were able to express mbIL-15
same,levels of mbIL-15 expression versus level of T cell activation,"[2]; veledimex at fixed concentration, ConA 1 vs 5 μg/mL",increased with level of T cells activation

# From US11692194B2, “Modulating expression of polypeptides via new gene switch expression systems” (Precigen, Inc., priority 2017, dated 2023)
